Values quoted from earlier work as cited in PMC5413030, “Radiochemistry on electrodes: Synthesis of an ^18F-labelled and in vivo stable COX-2 inhibitor” (PLoS ONE, 2017).

Experiments:
[1] = oxidation of the methyl group

protein binding in plasma: > 95%
metabolic behavior of celecoxib [1]: almost completely metabolized
Compound: Cc1ccc(-c2cc(C(F)(F)F)nn2-c2ccc(S(N)(=O)=O)cc2)cc1 [Celecoxib, 4-[5-(4-Methylphenyl)-3-(trifluoromethyl)-1H-pyrazol-1-yl]benzenesulfonamide]
